The numbers were not newly measured in US8338383B1, “Use of immunomodulators for the treatment of cancer” (priority 2012, dated 2012), which cites them from elsewhere.

The subject of the series is patients with advanced pancreatic cancer. The note with it: survival from study enrollment to death from any cause.

For the molecule `O=c1[nH]cc(F)c(=O)[nH]1` [5-FU, 5-fluorouracil], the “median Overall Survival” value was 4.2 months.

For `Nc1ccn([C@@H]2O[C@H](CO)[C@@H](O)C2(F)F)c(=O)n1` [gemcitabine, Gemcitabine], the “increased median survival versus 5-FU” value is on record as 1.5 months and the “median Overall Survival” value is 5.7 months.
